Consider eight compounds from patent US9340590B2 (priority 2011, dated 2016).

The target of the test is hNav1.7 (Homo sapiens, UniProt Q15858). Kind of test: cell-based. The class given is cell-based. Conditions: read-out: IWQ Use Nav1.7.

Where two headings read alike, the source gives them in different places. Positions of bridges follow the written chain, without caps; N, C: chain ends. Residues, ends and D or L forms follow the SMILES beside them.

Chain of hNav1.7 (Q15858 whole entry, looked up): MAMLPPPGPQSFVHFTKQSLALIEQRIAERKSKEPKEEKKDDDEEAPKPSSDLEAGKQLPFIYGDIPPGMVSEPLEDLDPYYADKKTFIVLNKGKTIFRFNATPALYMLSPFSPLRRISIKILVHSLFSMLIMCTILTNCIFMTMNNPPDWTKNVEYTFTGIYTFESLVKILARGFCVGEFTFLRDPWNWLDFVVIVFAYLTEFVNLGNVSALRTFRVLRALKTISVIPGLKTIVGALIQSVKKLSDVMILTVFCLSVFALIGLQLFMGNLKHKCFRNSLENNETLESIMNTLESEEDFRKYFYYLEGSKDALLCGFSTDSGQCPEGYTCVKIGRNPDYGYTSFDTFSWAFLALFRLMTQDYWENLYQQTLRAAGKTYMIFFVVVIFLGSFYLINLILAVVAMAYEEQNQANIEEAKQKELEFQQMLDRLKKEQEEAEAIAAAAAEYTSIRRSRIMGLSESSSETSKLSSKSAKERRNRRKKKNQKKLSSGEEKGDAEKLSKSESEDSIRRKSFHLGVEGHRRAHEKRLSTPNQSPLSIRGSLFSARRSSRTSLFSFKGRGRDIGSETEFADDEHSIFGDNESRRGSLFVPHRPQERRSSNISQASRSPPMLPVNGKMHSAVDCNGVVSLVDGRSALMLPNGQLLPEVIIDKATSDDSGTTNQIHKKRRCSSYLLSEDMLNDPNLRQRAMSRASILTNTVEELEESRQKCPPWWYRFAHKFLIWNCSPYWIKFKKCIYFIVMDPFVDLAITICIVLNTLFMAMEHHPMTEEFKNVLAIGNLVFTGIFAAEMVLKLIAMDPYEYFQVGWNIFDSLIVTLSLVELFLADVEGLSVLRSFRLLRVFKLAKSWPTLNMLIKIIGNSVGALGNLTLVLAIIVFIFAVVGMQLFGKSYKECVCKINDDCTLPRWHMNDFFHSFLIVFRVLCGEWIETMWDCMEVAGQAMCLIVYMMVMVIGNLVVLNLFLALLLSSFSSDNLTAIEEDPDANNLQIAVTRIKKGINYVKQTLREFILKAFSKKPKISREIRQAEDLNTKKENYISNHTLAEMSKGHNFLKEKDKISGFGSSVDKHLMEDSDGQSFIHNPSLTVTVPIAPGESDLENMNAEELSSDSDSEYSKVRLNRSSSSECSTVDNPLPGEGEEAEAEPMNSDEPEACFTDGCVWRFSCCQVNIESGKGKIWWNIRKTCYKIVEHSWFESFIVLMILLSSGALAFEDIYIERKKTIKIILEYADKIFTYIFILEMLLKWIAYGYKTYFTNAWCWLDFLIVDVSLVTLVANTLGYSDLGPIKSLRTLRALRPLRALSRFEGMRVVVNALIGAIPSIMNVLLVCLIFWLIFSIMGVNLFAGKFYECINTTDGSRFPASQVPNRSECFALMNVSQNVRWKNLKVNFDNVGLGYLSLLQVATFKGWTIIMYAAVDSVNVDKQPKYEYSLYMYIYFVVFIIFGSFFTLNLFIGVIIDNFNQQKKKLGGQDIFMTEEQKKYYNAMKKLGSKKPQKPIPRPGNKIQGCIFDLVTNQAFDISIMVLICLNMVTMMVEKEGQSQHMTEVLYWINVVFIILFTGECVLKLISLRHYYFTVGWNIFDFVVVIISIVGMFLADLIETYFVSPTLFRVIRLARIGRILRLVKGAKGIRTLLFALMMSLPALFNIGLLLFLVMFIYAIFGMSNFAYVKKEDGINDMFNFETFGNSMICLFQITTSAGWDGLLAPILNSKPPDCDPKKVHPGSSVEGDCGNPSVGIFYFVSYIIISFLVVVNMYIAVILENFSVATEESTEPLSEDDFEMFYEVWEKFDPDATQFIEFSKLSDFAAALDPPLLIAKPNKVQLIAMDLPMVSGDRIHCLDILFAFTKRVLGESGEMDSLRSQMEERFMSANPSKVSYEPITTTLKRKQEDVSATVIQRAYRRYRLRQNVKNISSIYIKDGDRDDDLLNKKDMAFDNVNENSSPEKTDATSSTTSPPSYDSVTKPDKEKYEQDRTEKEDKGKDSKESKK

Turning to `CC[C@H](C)[C@@H]1NC(=O)[C@@H]2CSSC[C@@H]3NC(=O)[C@H](C(C)C)NC(=O)[C@H](CC(C)C)NC(=O)[C@H](CC(N)=O)NC(=O)[C@@H]4CCCN4C(=O)[C@H](CCCNC(=N)N)NC(=O)[C@H](CSSC[C@H](NC(=O)[C@@H](N)CC(=O)O)C(=O)N[C@@H](CCCNC(=N)N)C(=O)NCC(=O)N[C@@H](Cc4ccccc4)C(=O)N[C@@H](CCSC)C(=O)N[C@@H](CCCNC(=N)N)C(=O)N[C@@H](CCCCN)C(=O)N2)NC(=O)[C@H](CSSC[C@@H](C(=O)N[C@@H](CCCCN)C(=O)N[C@@H](Cc2ccc(O)cc2)C(=O)N[C@H](C(=O)N[C@@H](Cc2ccccc2)C(N)=O)C(C)C)NC(=O)[C@H](Cc2c[nH]c4ccccc24)NC(=O)[C@H](CCCCN)NC(=O)[C@H](Cc2c[nH]cn2)NC(=O)[C@H]([C@@H](C)O)NC(=O)[C@H](CCCNC(=N)N)NC(=O)[C@H](CO)NC3=O)NC(=O)[C@H](CCCCN)NC(=O)[C@H](CC(=O)O)NC(=O)[C@H](CC(N)=O)NC(=O)[C@H](CC(=O)O)NC(=O)[C@@H]2CCCN2C1=O` [SEQ ID NO: 155] (H-DCRGFMRKCIPDNDKCCRPNLVCSRTHKWCKYVF-NH2; disulfide 2-17, 9-23, 16-30), the IC50 is 30 nM.

Consider `CC[C@H](C)[C@@H]1NC(=O)[C@@H]2CSSC[C@@H]3NC(=O)[C@H](C(C)C)NC(=O)[C@H](CC(C)C)NC(=O)[C@H](CC(N)=O)NC(=O)[C@@H]4CCCN4C(=O)[C@H](CCCNC(=N)N)NC(=O)[C@H](CSSC[C@H](NC(=O)[C@@H](N)CC(=O)O)C(=O)N[C@@H](CC(C)C)C(=O)NCC(=O)N[C@@H](CCCNC(=N)N)C(=O)N[C@@H](CCSC)C(=O)N[C@@H](CCCNC(=N)N)C(=O)N[C@@H](CCCCN)C(=O)N2)NC(=O)[C@H](CSSC[C@@H](C(=O)N[C@@H](CCCCN)C(=O)N[C@@H](Cc2ccc(O)cc2)C(=O)N[C@H](C(=O)N[C@@H](Cc2ccccc2)C(N)=O)C(C)C)NC(=O)[C@H](Cc2c[nH]c4ccccc24)NC(=O)[C@H](CCCCN)NC(=O)[C@H](Cc2c[nH]cn2)NC(=O)[C@H]([C@@H](C)O)NC(=O)[C@H](CCCNC(=N)N)NC(=O)[C@H](CO)NC3=O)NC(=O)[C@H](CCCCN)NC(=O)[C@H](CC(=O)O)NC(=O)[C@H](CC(N)=O)NC(=O)[C@H](CC(=O)O)NC(=O)[C@@H]2CCCN2C1=O` [SEQ ID NO: 156] (H-DCLGRMRKCIPDNDKCCRPNLVCSRTHKWCKYVF-NH2; disulfide 2-17, 9-23, 16-30), for which the IC50 (IonWorks Quattro, clamped to −110 mV, depolarized to −10 mV, 5 min after compound, n=2) was determined as 3630 nM. In the case of `CC[C@H](C)[C@@H]1NC(=O)[C@@H]2CSSC[C@@H]3NC(=O)[C@H](C(C)C)NC(=O)[C@H](CC(C)C)NC(=O)[C@H](CC(N)=O)NC(=O)[C@@H]4CCCN4C(=O)[C@H](CCCNC(=N)N)NC(=O)[C@H](CSSC[C@H](NC(=O)[C@@H](N)CC(=O)O)C(=O)N[C@@H](CC(C)C)C(=O)N[C@@H](Cc4c[nH]c5ccccc45)C(=O)N[C@@H](Cc4ccccc4)C(=O)N[C@@H](CCSC)C(=O)N[C@@H](CCCNC(=N)N)C(=O)N[C@@H](CCCCN)C(=O)N2)NC(=O)[C@H](CSSC[C@@H](C(=O)N[C@@H](CCCCN)C(=O)N[C@@H](Cc2ccc(O)cc2)C(=O)N[C@H](C(=O)N[C@@H](Cc2ccccc2)C(N)=O)C(C)C)NC(=O)[C@H](Cc2c[nH]c4ccccc24)NC(=O)[C@H](CCCCN)NC(=O)[C@H](Cc2c[nH]cn2)NC(=O)[C@H]([C@@H](C)O)NC(=O)[C@H](CCCNC(=N)N)NC(=O)[C@H](CO)NC3=O)NC(=O)[C@H](CCCCN)NC(=O)[C@H](CC(=O)O)NC(=O)[C@H](CC(N)=O)NC(=O)[C@H](CC(=O)O)NC(=O)[C@@H]2CCCN2C1=O` [SEQ ID NO: 169] (H-DCLWFMRKCIPDNDKCCRPNLVCSRTHKWCKYVF-NH2; disulfide 2-17, 9-23, 16-30), the IC50 was 50 nM. For the compound `CC[C@H](C)[C@@H]1NC(=O)[C@@H]2CSSC[C@@H]3NC(=O)[C@H](C(C)C)NC(=O)[C@H](CC(C)C)NC(=O)[C@H](CC(N)=O)NC(=O)[C@@H]4CCCN4C(=O)[C@H](CCCNC(=N)N)NC(=O)[C@H](CSSC[C@H](NC(=O)[C@@H](N)CC(=O)O)C(=O)N[C@@H](CC(C)C)C(=O)NCC(=O)N[C@@H](Cc4ccccc4)C(=O)N[C@@H](CCSC)C(=O)N[C@@H](C)C(=O)N[C@@H](CCCCN)C(=O)N2)NC(=O)[C@H](CSSC[C@@H](C(=O)N[C@@H](CCCCN)C(=O)N[C@@H](Cc2ccc(O)cc2)C(=O)N[C@H](C(=O)N[C@@H](Cc2ccccc2)C(N)=O)C(C)C)NC(=O)[C@H](Cc2c[nH]c4ccccc24)NC(=O)[C@H](CCCCN)NC(=O)[C@H](Cc2c[nH]cn2)NC(=O)[C@H]([C@@H](C)O)NC(=O)[C@H](CCCNC(=N)N)NC(=O)[C@H](CO)NC3=O)NC(=O)[C@H](CCCCN)NC(=O)[C@H](CC(=O)O)NC(=O)[C@H](CC(N)=O)NC(=O)[C@H](CC(=O)O)NC(=O)[C@@H]2CCCN2C1=O` [[Ala7]GpTx-1(1-34)] (H-DCLGFMAKCIPDNDKCCRPNLVCSRTHKWCKYVF-NH2; disulfide 2-17, 9-23, 16-30), the IC50 (IonWorks Quattro, use-dependent block, hNav1.7) was determined as 940 nM. For the compound `CC[C@H](C)[C@@H]1NC(=O)[C@@H]2CSSC[C@@H]3NC(=O)[C@H](C(C)C)NC(=O)[C@H](CC(C)C)NC(=O)[C@H](CC(N)=O)NC(=O)[C@@H]4CCCN4C(=O)[C@H](CCCNC(=N)N)NC(=O)[C@H](CSSC[C@H](NC(=O)[C@@H](N)CC(=O)O)C(=O)N[C@@H](CC(C)C)C(=O)NCC(=O)N[C@@H](Cc4ccccc4)C(=O)N[C@@H](CCSC)C(=O)N[C@@H](CCCNC(=N)N)C(=O)N[C@@H](CCC(=O)O)C(=O)N2)NC(=O)[C@H](CSSC[C@@H](C(=O)N[C@@H](CCCCN)C(=O)N[C@@H](Cc2ccc(O)cc2)C(=O)N[C@H](C(=O)N[C@@H](Cc2ccccc2)C(N)=O)C(C)C)NC(=O)[C@H](Cc2c[nH]c4ccccc24)NC(=O)[C@H](CCCCN)NC(=O)[C@H](Cc2c[nH]cn2)NC(=O)[C@H]([C@@H](C)O)NC(=O)[C@H](CCCNC(=N)N)NC(=O)[C@H](CO)NC3=O)NC(=O)[C@H](CCCCN)NC(=O)[C@H](CC(=O)O)NC(=O)[C@H](CC(N)=O)NC(=O)[C@H](CC(=O)O)NC(=O)[C@@H]2CCCN2C1=O` [[Glu8]GpTx-1(1-34)] (H-DCLGFMRECIPDNDKCCRPNLVCSRTHKWCKYVF-NH2; disulfide 2-17, 9-23, 16-30), the IC50 is 1700 nM. With `CC[C@H](C)[C@@H]1NC(=O)[C@@H]2CSSC[C@@H]3NC(=O)[C@H](C(C)C)NC(=O)[C@H](CC(C)C)NC(=O)[C@H](CC(N)=O)NC(=O)[C@@H]4CCCN4C(=O)[C@H](CCCNC(=N)N)NC(=O)[C@H](CSSC[C@H](NC(=O)[C@@H](N)CC(=O)O)C(=O)N[C@@H](CC(C)C)C(=O)NCC(=O)N[C@@H](Cc4ccccc4)C(=O)N[C@@H](CCSC)C(=O)N[C@@H](CCCNC(=N)N)C(=O)N[C@@H](CCCCN)C(=O)N2)NC(=O)[C@H](CSSC[C@@H](C(=O)N[C@@H](CCCCN)C(=O)N[C@@H](Cc2ccc(O)cc2)C(=O)N[C@H](C(=O)N[C@@H](Cc2ccccc2)C(N)=O)C(C)C)NC(=O)[C@H](Cc2c[nH]c4ccccc24)NC(=O)[C@H](CCCCN)NC(=O)[C@H](Cc2c[nH]cn2)NC(=O)[C@H]([C@@H](C)O)NC(=O)[C@H](CCCNC(=N)N)NC(=O)[C@H](CO)NC3=O)NC(=O)[C@H](CCCCN)NC(=O)[C@H](CC(=O)O)NC(=O)[C@H](CC(N)=O)NC(=O)[C@H](C)NC(=O)[C@@H]2CCCN2C1=O` [compound 4] (H-DCLGFMRKCIPANDKCCRPNLVCSRTHKWCKYVF-NH2; disulfide 2-17, 9-23, 16-30), the IC50 (IonWorks Quattro, Use) turned out to be 120 nM.

On to `CC[C@H](C)[C@@H]1NC(=O)[C@@H]2CSSC[C@@H]3NC(=O)[C@H](C(C)C)NC(=O)[C@H](CC(C)C)NC(=O)[C@H](C)NC(=O)[C@@H]4CCCN4C(=O)[C@H](CCCNC(=N)N)NC(=O)[C@H](CSSC[C@H](NC(=O)[C@@H](N)CC(=O)O)C(=O)N[C@@H](CC(C)C)C(=O)NCC(=O)N[C@@H](Cc4ccccc4)C(=O)N[C@@H](CCSC)C(=O)N[C@@H](CCCNC(=N)N)C(=O)N[C@@H](CCCCN)C(=O)N2)NC(=O)[C@H](CSSC[C@@H](C(=O)N[C@@H](CCCCN)C(=O)N[C@@H](Cc2ccc(O)cc2)C(=O)N[C@H](C(=O)N[C@@H](Cc2ccccc2)C(N)=O)C(C)C)NC(=O)[C@H](Cc2c[nH]c4ccccc24)NC(=O)[C@H](CCCCN)NC(=O)[C@H](Cc2c[nH]cn2)NC(=O)[C@H]([C@@H](C)O)NC(=O)[C@H](CCCNC(=N)N)NC(=O)[C@H](CO)NC3=O)NC(=O)[C@H](CCCCN)NC(=O)[C@H](CC(=O)O)NC(=O)[C@H](CC(N)=O)NC(=O)[C@H](CC(=O)O)NC(=O)[C@@H]2CCCN2C1=O` [compound 7] (H-DCLGFMRKCIPDNDKCCRPALVCSRTHKWCKYVF-NH2; disulfide 2-17, 9-23, 16-30), for which the IC50 was determined as 690 nM. Take `CC[C@H](C)[C@@H]1NC(=O)[C@@H]2CSSC[C@@H]3NC(=O)[C@H](C)NC(=O)[C@H](CC(C)C)NC(=O)[C@H](CC(N)=O)NC(=O)[C@@H]4CCCN4C(=O)[C@H](CCCNC(=N)N)NC(=O)[C@H](CSSC[C@H](NC(=O)[C@@H](N)CC(=O)O)C(=O)N[C@@H](CC(C)C)C(=O)NCC(=O)N[C@@H](Cc4ccccc4)C(=O)N[C@@H](CCSC)C(=O)N[C@@H](CCCNC(=N)N)C(=O)N[C@@H](CCCCN)C(=O)N2)NC(=O)[C@H](CSSC[C@@H](C(=O)N[C@@H](CCCCN)C(=O)N[C@@H](Cc2ccc(O)cc2)C(=O)N[C@H](C(=O)N[C@@H](Cc2ccccc2)C(N)=O)C(C)C)NC(=O)[C@H](Cc2c[nH]c4ccccc24)NC(=O)[C@H](CCCCN)NC(=O)[C@H](Cc2c[nH]cn2)NC(=O)[C@H]([C@@H](C)O)NC(=O)[C@H](CCCNC(=N)N)NC(=O)[C@H](CO)NC3=O)NC(=O)[C@H](CCCCN)NC(=O)[C@H](CC(=O)O)NC(=O)[C@H](CC(N)=O)NC(=O)[C@H](CC(=O)O)NC(=O)[C@@H]2CCCN2C1=O` [compound 8] (H-DCLGFMRKCIPDNDKCCRPNLACSRTHKWCKYVF-NH2; disulfide 2-17, 9-23, 16-30): under “IonWorks Quattro, Use”, the IC50 was 380 nM.
